Source: patent publication US10308682B2, “Inhibition of tumor growth with aggregates of small molecules” (BRANDEIS UNIVERSITY, priority 2013, dated 2019)

Tests used:
HepG2 = experiment: Cell viability assay (MTT), HepG2; type: cell-based
Experimental: (§1) Cells in exponential growth phase were seeded in a 96 well plate at a concentration of 50,000 cell/well. The cells were allowed to attach to the wells for 24 h at 37° C., 5% CO2, then the culture medium was removed and 100 μL new culture medium containing 1 at gradient concentrations was placed into each well. After culturing at 37° C., 5% CO2 for desired time, each well was added by 10 μL of 5 mg/mL MTT 43-(4,5-Dimethylthiazol-2-yl)-2,5-diphenyltetrazolium bromide), and the plated cells were incubate at dark for 4 h. 100 μL 10% SDS with 0.01 M HCl was added to each well to stop the reduction reaction and to dissolve the purple. After incubation of the cells at 37° C. for overnight, the viability is measured. Data represent the mean±standard deviation of three independent experiments.
(§2) The estimation of the threshold concentration of aggregation (320-340 μM) for 1 allows us to examine the cytotoxicity of 1 in monomer and molecular aggregate forms. We first tested the cytotoxicity of 1 towards HeLa cells, the most widely studied cancer cell line, below and above the threshold concentration.

tubulin heterodimers = biological target: T1, tubulin heterodimers (Sus scrofa, UniProt P02550+P02554); experiment: In vitro tubulin polymerization assay; type: biochemical
T1 construct: purchased Cytoskeleton
Excerpt: Tubulin polymerization assay in the presence of 1. In vitro tubulin polymerization reactions in (a) as prepared or (c) filtered reaction cocktail without 1 (control) or with different concentrations of 1. The amount of microtubule is in proportion to optical density at 340 nm. The calculated polymerization rate (Vmax) and the final tubulin polymer mass vs concentrations of 1 from tubulin polymerization in (b) as prepared or (d) filtered reaction cocktail. Negative stained TEM images of molecular aggregates of 1 binding with tubulin. Buffer (control) or 1 (final concentration at 200 to 500 μM) was introduced into reaction cocktail containing fully assembled microtubule (after 60 min of polymerization). The amount of microtubule remain unchanged after 30 min. (e) Molecular aggregates of 1 (400 μM) incubated with tubulins heterodimers in general tubulin buffer. Scale bar=40 nm. White arrows point at tubulin clusters on the molecular aggregates of 1. Confocal images of tubulin stained HeLa and other cell lines. (f) Time dependent cytotoxicity of 1 towards HeLa cells. Data are presented as mean±SD of three independent experiments. Tubulin staining of HeLa cells treated with as-prepared medium containing (g) 0 μM, (h) 200 μM, (i) 300 μM and (j) 400 μM of 1, and filtered medium (k) containing 400 μM of 1 for 24 h. Insets are 3× enlarged images. T98G (l, m) and PC12 (n, o) were also treated with as-prepared medium containing 0 or 400 μM of 1 for 24 h for tubulin staining DNA was counterstained blue by DAPI. Scale bar=10 μm. See also FIG. 12.
As the major function of tubulin is to polymerize into microtubule, we carried out in vitro tubulin polymerization assay to evaluate how the molecular aggregates of 1 affect the polymerization of tubulin. We incubated tubulin heterodimers (i.e., the α- and β-tubulin heterodimer, existing almost exclusively in heterodimer form in cytoplasm) with 1 at different concentrations and monitored the formation of microtubule (FIG. 5). […] At 300 μM of 1, the polymerization curve starts to deviate slightly from the control curve. […] To confirm that the molecular aggregates of 1, but not monomeric 1, inhibit the formation of microtubules, we filtrated of the reaction mixture by a 0.22 μm PVDF filter before the addition of tubulins. […] However, filtrated reaction mixtures containing 200 to 500 μM of 1 has similar polymerization curve to that of control.

microtubules = biological target: T2, microtubules (Sus scrofa, UniProt P02550+P02554); experiment: Addition of 1 to fully assembled microtubules; type: biochemical; settings: final concentration 200 to 500 μM, added after 60 min polymerization
T2 construct: purchased Cytoskeleton
Excerpt: Tubulin polymerization assay in the presence of 1. In vitro tubulin polymerization reactions in (a) as prepared or (c) filtered reaction cocktail without 1 (control) or with different concentrations of 1. The amount of microtubule is in proportion to optical density at 340 nm. The calculated polymerization rate (Vmax) and the final tubulin polymer mass vs concentrations of 1 from tubulin polymerization in (b) as prepared or (d) filtered reaction cocktail. Negative stained TEM images of molecular aggregates of 1 binding with tubulin. Buffer (control) or 1 (final concentration at 200 to 500 μM) was introduced into reaction cocktail containing fully assembled microtubule (after 60 min of polymerization). The amount of microtubule remain unchanged after 30 min. (e) Molecular aggregates of 1 (400 μM) incubated with tubulins heterodimers in general tubulin buffer. Scale bar=40 nm. White arrows point at tubulin clusters on the molecular aggregates of 1. […]
Microtubules are highly dynamic, growing and shrinking at a constant rate. To determine whether molecular aggregates of 1 achieve the inhibition of microtubule formation through preventing microtubule growth or accelerating microtubule shrinkage, we applied 1 to the polymerization mixture after most of tubulin heterodimers already formed microtubules (60 min of pre-incubation) and monitored the change of microtubules.

PC12 cells = experiment: Intracellular concentration of 1 in PC12 cells by LC-MS; type: cell-based; settings: 12 h at 37° C.
Experimental: FIG. 10 depicts the long term cytotoxicity of 1 on PC12 cells. Related to FIG. 2. (a) MTT viability test of cell incubated with gradient concentration of 1 for up to 7 days without changing medium. Data are presented as mean±SD of three independent experiments. (b) Intracellular concentration of 1 in PC12 cells treated with 1 for 12 h at 37° C. measured by LC-MS (left bar=400 μM; right bar=300 μM). (c) Cells were subcultured and re-seeded with new medium containing the same concentration of 1 (0 for control group and 400 μM for test group) every 4 days. Data are presented as mean±SD of three independent experiments.
FIG. 21 depicts the intracellular concentration of 1 in PC12 and T98G cells after incubation with 400 μM of 1 for 12 h. Cells in exponential growth phase were seeded in a 10 cm petri dish at 10,000 cell/mL. The cells were allowed to attach for 24 h at 37° C., 5% CO2. The culture medium was removed, and new culture medium containing 1 at 0 or 400 μM was added. After 12 h of incubation, cells were washed with PBS buffer 3 times and collected by cell scraper with 1 mL of PBS buffer. The cell suspension was centrifuged at 600 g for 5 min to obtain a cell pellet. 10 μL of the cell pellet were lysed in 200 μL of water and 200 μL of MeOH. […] The concentration of 1 in the lysate was measured by LC-MS.

Capan-2 = experiment: Cell viability assay (MTT), Capan-2; type: cell-based
Experimental: as §1, §2

T1 sequence (P02550 whole entry): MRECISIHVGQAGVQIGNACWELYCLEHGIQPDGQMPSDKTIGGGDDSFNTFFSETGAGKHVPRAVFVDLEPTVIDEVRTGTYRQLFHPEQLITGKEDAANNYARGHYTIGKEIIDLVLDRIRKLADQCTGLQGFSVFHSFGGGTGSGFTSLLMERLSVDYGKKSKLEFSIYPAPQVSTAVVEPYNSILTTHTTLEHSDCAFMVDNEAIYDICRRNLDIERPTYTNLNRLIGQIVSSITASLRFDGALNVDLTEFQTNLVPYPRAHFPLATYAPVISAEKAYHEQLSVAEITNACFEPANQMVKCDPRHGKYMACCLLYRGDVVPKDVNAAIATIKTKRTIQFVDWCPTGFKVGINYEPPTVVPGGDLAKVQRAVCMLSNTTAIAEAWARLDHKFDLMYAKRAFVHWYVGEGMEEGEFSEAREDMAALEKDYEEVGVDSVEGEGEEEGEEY
T1 sequence (P02554 whole entry): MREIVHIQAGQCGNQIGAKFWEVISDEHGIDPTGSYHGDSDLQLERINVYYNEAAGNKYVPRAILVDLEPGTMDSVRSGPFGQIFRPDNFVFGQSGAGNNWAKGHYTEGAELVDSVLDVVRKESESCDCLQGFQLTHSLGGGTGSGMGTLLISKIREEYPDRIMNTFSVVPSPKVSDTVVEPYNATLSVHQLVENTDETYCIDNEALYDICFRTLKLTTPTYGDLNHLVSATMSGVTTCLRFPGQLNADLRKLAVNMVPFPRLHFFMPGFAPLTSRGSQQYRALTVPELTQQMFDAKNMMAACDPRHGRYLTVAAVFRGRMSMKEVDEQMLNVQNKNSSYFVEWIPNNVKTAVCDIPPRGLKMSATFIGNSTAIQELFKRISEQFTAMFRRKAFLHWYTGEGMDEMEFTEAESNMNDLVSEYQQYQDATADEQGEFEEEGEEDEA
T2 sequence (P02550 whole entry): as the sequence (P02550 whole entry) above
T2 sequence (P02554 whole entry): as the sequence (P02554 whole entry) above

For `O=C(Cc1ccc2ccccc2c1)N[C@@H](Cc1ccccc1)C(=O)N[C@@H](Cc1ccccc1)C(=O)O` [Compound 1], the “cytotoxicity towards HepG2” value (HepG2) was “decreases of cell viabilities only observed at 400 and 500 μM”, the “polymerization rate (Vmax)” value (tubulin heterodimers; 200 μM or 300 μM, as prepared) was “barely inhibits the polymerization of tubulins” and the “final amount of polymers (microtubule)” value (tubulin heterodimers; 300 μM, as prepared) was “slightly decreases the amount of microtubules”. For the same compound, the “polymerization rate (Vmax)” value (tubulin heterodimers; 400 or 500 μM, as prepared) was “drastically decreases the Vmax”, the “reduction of final amount of polymers (microtubule)” value (tubulin heterodimers; 400 or 500 μM, as prepared) was “about 30 % decrease” and the “Vmax and final amount of polymers after filtration” value (tubulin heterodimers; 400 or 500 μM, filtered by 0.22 μm PVDF filter) was “only causes slight decreases in both Vmax and the final amount of polymers of tubulins”. For the same compound, the “loss of preformed microtubules” value (microtubules) was “little notable loss of microtubules”, the “accumulation of 1 in PC12 cells versus HeLa cells” value (PC12 cells) was “much less amount of 1 than HeLa cells do” and the “cytotoxicity towards Capan-2” value (Capan-2) was “decreases of cell viabilities only observed at 400 and 500 μM”.
